# Source: article PMC12023841, “Unlocking the Gates: A Novel Diagnostic Molecule for Quantifying Efflux Levels in Gram‐Positive Bacteria” (Advanced Healthcare Materials, 2025)
# “Also recorded” adds a separate entry of the source.
# Tests used:
# [1] = system: Staphylococcus aureus ATCC 25923 (Reference, basal); test: MIC, broth microdilution (CLSI); assay type: cell-based; conditions: ATCC25923
# [2] = system: SA 1199 (Wild‐type, basal); test: MIC, broth microdilution (CLSI); assay type: cell-based; conditions: Staphylococcus aureus
# [3] = system: SA 1199‐B (norA overexpressing); test: microbe, parasite or virus in culture; assay type: cell-based, Staphylococcus aureus; conditions: Staphylococcus aureus
# SA‐K1758 (∆norA) = test: microbe, parasite or virus in culture; assay type: cell-based; conditions: Staphylococcus aureus
# [4] = Solution‐state stability test in MH‐II broth; assay type: physicochemical; conditions: 512–1 µg mL^−1, 37 °C for a day, centrifuged
# Description: Before accessing the minimal inhibitory concentration (MIC), each phenazinium derivative was subjected to a solution‐state stability test. For this experiment, each derivative was solubilized in DMSO to achieve a primary stock solution (20 mg mL^−1). This stock was further diluted in MilliQ to achieve a working stock solution (10 mg mL^−1). […] The tubes were placed in an incubator at 37 °C for a day and later centrifuged at 25 000 rpm for 25 min.
smiles,measurement,setting,value
CCCCNc1ccc2nc3cc(NCCC)c(N)cc3[n+](CCC)c2c1 [5a1],MIC,[1],1 µg/mL
same,MIC,[2],1 µg/mL
same,MIC,[3],2 µg/mL
same,MIC,SA‐K1758 (∆norA),0.5 µg/mL
same,Solution state stability (concentration at which visible precipitation was observed),[4],Visible precipitation was observed at 128 µg mL^−1 and beyond
CCCCNc1ccc2nc3cc(NCCCC)c(N)cc3[n+](CCC)c2c1 [5a2],MIC,[1],1 µg/mL
same,MIC,[2],1 µg/mL
same,MIC,[3],2 µg/mL
same,MIC,SA‐K1758 (∆norA),0.25 µg/mL
same,Solution state stability (concentration at which visible precipitation was observed),[4],Visible precipitation was observed at 512 µg mL^−1 and beyond
CCCCCCCCNc1cc2nc3ccc(NCCCC)cc3[n+](CCC)c2cc1N [5a3],MIC,[1],64 µg/mL
same,MIC,[2],64 µg/mL
same,MIC,[3],64 µg/mL
same,MIC,SA‐K1758 (∆norA),8 µg/mL
same,Solution state stability (concentration at which visible precipitation was observed),[4],Visible precipitation was observed at 128 µg mL^−1 and beyond
CCCCCCCCNc1cc2nc3ccc(NCCCC)cc3[n+](CCCCCCCC)c2cc1N [5b3],MIC,[1],32 µg/mL
same,MIC,[2],32 µg/mL
same,MIC,SA‐K1758 (∆norA),32 µg/mL
same,Solution state stability (concentration at which visible precipitation was observed),[4],Visible precipitation was observed at 128 µg mL^−1 and beyond
CCCCCCCC[n+]1c2cc(NCCCC)ccc2nc2cc(NCCOC)c(N)cc21 [5b4],MIC,[1],1 µg/mL
same,MIC,[2],1 µg/mL
same,MIC,[3],1 µg/mL
same,MIC,SA‐K1758 (∆norA),2 µg/mL
same,Solution state stability (concentration at which visible precipitation was observed),[4],excellent solubility and stability; also recorded: Stable
CCCCNc1cc2nc3ccc(NCCC)cc3[n+](CCC)c2cc1N [5c1],MIC,[1],2 µg/mL
same,MIC,[2],2 µg/mL
same,MIC,[3],2 µg/mL
same,MIC,SA‐K1758 (∆norA),0.5 µg/mL
same,Solution state stability (concentration at which visible precipitation was observed),[4],Stable
CCCNc1ccc2nc3cc(NCCOC)c(N)cc3[n+](CCC)c2c1 [5c2],MIC,[1],4 µg/mL
same,MIC,[2],8 µg/mL
same,MIC,[3],8 µg/mL
same,MIC,SA‐K1758 (∆norA),4 µg/mL
same,Solution state stability (concentration at which visible precipitation was observed),[4],excellent solubility and stability; also recorded: Stable
